The results in this text go back to article PMC5082894 (PLoS ONE, 2016).

As usually defined, the EC50 is the midpoint of the concentration-response curve.

The test system of data set [1] is PD-1 expression on CD4+ and CD8+ T cells. Nature of the data set: Flow cytometry of PD-1 on T cells of HIV-1-infected PBMCs. The data set is classed as cell-based, human. To be noted: day 9 post infection. An excerpt:
(§1) PBMCs (1 x 10^6/ml) were infected with 100 TCID50 of various HIV-1 strains (92UG037: primary R5-tropic strain; YU2B and BaL: R5-tropic lab strains, 93BR020: dual-tropic primary isolate; NL4-3: X4-tropic lab strain) and simultaneously treated with a range of concentrations of IND02-trimer in 24-well plates (Greiner) in duplicates. Cells were washed, fixed (4% paraformaldehyde) and stained on several days post infection (1-4-9-13-19) using the following mAbs against PD-1-Brilliant Violet 421, CD3-FITC, Tim-3-PE, CD4-PE-Cy7 (all from Biolegend) and CD8-APC (Miltenyi). Multicolor flow cytometric analyses were performed on a FACS Verse (BD Biosciences).
(§2) Fig 5 Reduction of Tim-3 (left) and PD1 (right) expression on HIV-1 and IND02-trimer-treated CD8^+ (A) and CD4^+ (B) T cells. Stimulated PBMCs were simultaneously incubated with 0.4 to 40 μg/ml (0.46–46.3 μM) IND02-trimer and HIV-1 (92UG037, BaL, YU2b, 93BR020 or NL4-3). Up-regulation of Tim-3 (left) and PD-1 (right) on CD8^+ (A) and CD4^+ (B) T cells was impeded by the IND02-trimer, as shown by multicolour FACS analyses of live T cells on day 9 post co-treatment. Experiments were repeated in 4–5 independent experiments with cells from different donors and statistical differences were analyzed by the GraphPad prism software using the unpaired student’s t-test (2-tailed).
(A flow cytometer gives signals particle by particle.)

The subject of data set [2] is HIV-1 LAI. Nature of the data set: MAGI assay, HIV-1 LAI. It counts as cell-based. To be noted: Human immunodeficiency virus 1, MAGI cells. The protocol: Briefly, target cells (HeLa CD4/CCR5-LTR/β-gal; 10^4/well) were plated in 96-well flat microtiter culture plates. […] The test drugs were added initially and viruses were immediately inoculated onto the cells. Forty-eight hours after viral exposure, all blue cells in each well were counted. The cytotoxicity of the compound was determined by the MTT method as previously described. All experiments were performed in triplicate and AZT was used as reference anti-HIV-1 molecule.

The subject of data set [3] is HIV-1 92HT599 (B-X4). Nature of the data set: PBMC antiviral assay (RT activity), HIV-1 92HT599. The data set is classed as cell-based. The following applies: Human immunodeficiency virus 1, PBMC, 168 h; PHA-P-activated PBMCs, 125 TCID50, day 7, RT activity. The protocol:
(§3) In order to confirm antiretroviral activity of the compounds, using a cell model closer to the pathophysiology, Peripheral Blood Mononuclear Cells (PBMCs) were separated from a buffy-coat from healthy HIV-, HCV-, HBV-seronegative blood donors by Ficoll-Hypaque density gradient centrifugation. The PBMCs were activated by incubation with 1 μg/ml phytohemagglutinin-P (PHA-P; Difco Laboratories) for three days in RPMI 1640 medium supplemented with 10% heat-inactivated fetal calf serum (FCS, +56 ◦C for 45 min), 2mM l-glutamine and a 1% antibiotic cocktail (penicillin, streptomycin, neomycin). After this mitogen activation, PBMCs were cultivated in the same culture medium supplemented with recombinant human interleukin-2 (rHuIL-2; 20 IU/mL) and treated and/or infected. […] All these viruses were amplified in vitro with PHA-P-activated blood mononuclear cells and 50% tissue culture infectious doses (TCID50) were calculated using Kärber’s formula [37], after limited-dilution titration. […] Viral replication was measured by quantifying reverse transcriptase (RT) activity in the cell culture supernatants using the Lenti RT Activity Kit (Cavidi) and AZT was used as reference anti-HIV-1 molecule. EC50 were then calculated and expressed in μM.

The test system of data set [4] is HIV-1 Ba-L (B-R5). Description: PBMC antiviral assay (RT activity), HIV-1 Ba-L. The following applies: Human immunodeficiency virus 1, BAL, PBMC, 168 h; PHA-P-activated PBMCs, 125 TCID50, day 7, RT activity. The data set is classed as cell-based. The protocol:
as §3

Data set [5] can be described thus: Water solubility. The data set is classed as physicochemical.
The subject of data set [6] is Tim-3 expression on CD4+ and CD8+ T cells. Nature of the data set: Flow cytometry of Tim-3 on T cells of HIV-1-infected PBMCs. The data set is classed as cell-based, human. The following applies: day 9 post infection.
Source text: as §1, §2

Data set [7] concerns PD-1 expression on CD4+ and CD8+ T cells. Nature of the data set: Flow cytometry of PD-1 on T cells without HIV-1 (IND02-trimer alone). The data set is classed as cell-based, human. The following applies: no HIV-1, day 9 post exposure.
Data set [8] relates to HIV-1 98IN017 (C-X4). Nature of the data set: PBMC antiviral assay (RT activity), HIV-1 98IN017. The following applies: Human immunodeficiency virus 1, PBMC, 168 h; PHA-P-activated PBMCs, 125 TCID50, day 7, RT activity. It counts as cell-based. As for the experimental part: as §3
Data set [9] is described as follows: Stability studies in formulations. It counts as physicochemical. The following applies: in various formulations.
Data set [10] deals with HIV-1 LAI (B-X4). Nature of the data set: PBMC antiviral assay (RT activity), HIV-1 LAI. The data set is classed as cell-based. The following applies: Human immunodeficiency virus 1, PBMC, 168 h; PHA-P-activated PBMCs, 125 TCID50, day 7, RT activity. The protocol:
as §3

Structures are written as SMILES.

On to `Oc1cc(O)c2c(c1)O[C@@]1(c3ccc(O)c(O)c3)Oc3cc(O)c4c(c3[C@@H]2[C@H]1O)O[C@H](c1ccc(O)c(O)c1)[C@H](O)[C@H]4c1c(O)cc(O)c2c1O[C@H](c1ccc(O)c(O)c1)[C@H](O)C2` [IND02-trimer, cinnamtannin B1], for which the “PD-1 expression on CD8+ T cells versus infected control cells” value in data set [1] (HIV-1-exposed PBMCs, all concentrations tested (0.4 to 40 μg/ml)) is “significantly reduced”. The “PD-1 expression on CD4+ T cells versus infected control cells” value in data set [1] (HIV-1-infected PBMCs) was “decreased”. Besides, the concentration for a half-maximal effect (EC50) in [2] came out at 3.4 µg/mL; in data set [2] (48 h, mean of triplicate ± SD), 3.9 ± 1.6 µM; in data set [3], 1.2 ± 1 µM; in data set [4], 6.9 ± 2 µM; in [8], 0.8 µM; in data set [10], 4.6 ± 3 µM. In addition, in data set [5], the water solubility entry is given as “water-soluble”. In [6] (HIV-1-infected PBMC cultures, 0.4 to 40 μg/ml (0.46–46.3 μM)), the “Tim-3 expression on CD8+ T cells versus infected control cells” value was “significantly lower expression”. Moreover, the “Tim-3 expression on CD4+ T cells versus infected control cells” value in [6] (HIV-1-infected PBMCs) is reported as “decreased”. For the same compound, the “% CD4+/PD-1+” value in data set [7] (0.4 μg/ml / 0.46 μM) is given as 33.8%; in data set [7] (2 μg/ml / 2.31 μM), 35.0%; in data set [7] (4 μg/ml / 4.6 μM), 32.1%; in data set [7] (20 μg/ml / 23.1 μM), 32.0%; in [7] (40 μg/ml / 46 μM) it was 32.7%. Also, the “% CD8+/PD-1” value in [7] (0.4 μg/ml / 0.46 μM) came out at 23.7%; in [7] (2 μg/ml / 2.31 μM), 23.5%; in [7] (4 μg/ml / 4.6 μM), 23.7%; in data set [7] (20 μg/ml / 23.1 μM), 23.9%; in data set [7] (40 μg/ml / 46 μM), 23.5%. Besides, the “time over which the compound is stable” value in [9] was at least 6 months.
